The values below are quoted from earlier work in US20040018228A1, “Compositions and methods for reducing scar tissue formation” (Afmedica, Inc., priority 2000, published 2004).

SMILES strings stand for the structures.

One series concerns keloids. The conditions noted are these: in vivo.

For `CO[C@H]1C[C@@H]2CC[C@@H](C)[C@@](O)(O2)C(=O)C(=O)N2CCCC[C@H]2C(=O)O[C@H]([C@H](C)C[C@@H]2CC[C@@H](O)[C@H](OC)C2)CC(=O)[C@H](C)/C=C(\C)[C@@H](O)[C@@H](OC)C(=O)[C@H](C)C[C@H](C)/C=C/C=C/C=C/1C` [sirolimus], the “solubility in aqueous solutions” value is listed as “not to be readily soluble in aqueous solutions”.

In the case of `C=CC[C@@H]1/C=C(\C)C[C@H](C)C[C@H](OC)[C@H]2O[C@@](O)(C(=O)C(=O)N3CCCC[C@H]3C(=O)O[C@H](/C(C)=C/[C@@H]3CC[C@@H](O)[C@H](OC)C3)[C@H](C)[C@@H](O)CC1=O)[C@H](C)C[C@@H]2OC` [tacrolimus], the treatment of keloids entry in the series with keloids is “effectively treat keloids”.
